According to ChEMBL document CHEMBL5537181 (J Med Chem, 2024):
The source made the active and inactive calls.

Columns and labels:
Assay type in all cases: functional, organism-based
[1] = system: Rattus norvegicus; experiment: Analgesic activity in Chronic constriction injury rat model assessed as increase in paw withdrawal latency at 30 mg/kg,po administration and measured for 0.5 to 48 hrs; settings: time 0.5-48 hrs
[2] = system: Rattus norvegicus; experiment: Analgesic activity in Chronic constriction injury rat model assessed as increase in paw withdrawal threshold at 30 mg/kg,po administration and measured for 0.5 to 48 hrs; settings: time 0.5-48 hrs
[3] = system: Rattus norvegicus; experiment: Analgesic activity in Chronic constriction injury rat model assessed as increase in paw withdrawal threshold at 5 mg/kg,IM administration and measured for 0.5 to 48 hrs; settings: time 0.5-48 hrs
[4] = system: Rattus norvegicus; experiment: Antinociceptive activity in Chronic constriction injury rat model assessed as reduction in pain at 5 mg/kg,IM administration and measured after 12 hrs
[5] = system: Rattus norvegicus; experiment: Analgesic activity in Chronic constriction injury rat model assessed as increase in paw withdrawal latency at 5 mg/kg,IM administration and measured for 0.5 to 48 hrs; settings: time 0.5-48 hrs
[6] = system: Rattus norvegicus; experiment: Antinociceptive activity in Chronic constriction injury rat model assessed as reduction in pain at 5 mg/kg,IM administration and measured after 2 hrs

Measured: Activity

CC(C)C[C@H](CN)CC(=O)O
active: [1] | [2]

CN1CC[C@]23c4c5ccc(O)c4O[C@H]2[C@@H](O)C=C[C@H]3[C@H]1C5
active: [3] | [4] | [5] | [6]
